Experimental data: US20160120979A1, “METHOD OF APPLYING A COMPOSITION AND PHARMACEUTICAL COMPOSITION WITH A REGIMEN OF ADMINISTERING IT” (priority 2013, published 2016)
In brackets after ≈: the same amount, converted by molar mass. Where two headings read alike, the source gives them in different places.

What was measured:
[1] = test system: chemotherapy resistant stage 4 (metastatic) small cells lung carcinoma cells; experiment: Experiment 10: metabolic activity (CellTiter-Glo) of resistant neoplastic cells after photo-activated oncological drugs; conditions: sample 4, Topotecan 0.07 μg/ml
[2] = test system: MU50 multidrug-resistant Staphylococcus aureus strain (MRSA); experiment: Minimum inhibitory concentration (MIC) on MU50; type: cell-based; conditions: Staphylococcus aureus, MRSA; overnight incubation; read-out: MIC
Description: For some of the experimental tests MU50 bacteria were used. MU50 is a multidrug-resistant Staphylococcus aureus strain (MRSA). MRSA are bacteria which have naturally evolved under antibiotic selection pressure and which are known to be resistant to antibiotics including penicillins (methicillin, dicloxacillin, nafcillin, oxacillin, etc.) and cephalosporins. MU50 is additionally resistant to macrolides, quinolones and aminoglycosides.
The minimum inhibitory concentration (MIC), which inhibits the visible growth of a microorganism after an overnight incubation was determined for the following antibiotics: […]

[3] = test system: Mice fibroblast; type: cell-based; conditions: Tobramycin 75, Tetracycline 10, Ciprofloxacin 1 μg/ml; 30 min pre-incubation; no treatment, CXL 18 mW/cm2 5 min or laser 405 nm 1 min; 24 hours
Description: The number of colony forming units (CFU) was determined after 24 hours of incubation at 37° C.

[4] = test system: fibroblasts; type: cell-based
Description: In the second toxicity test fibroblasts were grown in RPMI cell culture medium medium with 10% fetal bovine serum and 1% of penicillin-streptomycin-fungizione (100×).
A: pulsed for 10 ms on and 90 ms of for 10 minutes or
B: pulsed for 5 ms on and 45 ms of for 10 minutes
C: no exposure to electromagnetic radiation
The result was obtained by counting viable cells for determination of the percentage of viable cells, with 100% viability being equal to the number of cells delivered to each well.

[5] = test system: Acinetobacter; experiment: Experiment 12: replication on antibiotic agar after pulsed 400 nm irradiation; type: cell-based; conditions: 24 hours incubation; for C: Acinetobacter (no irradiation), replication: antibiotic 10 mg/l in MH agar; for D Acinetobacter (irradiation), replication: antibiotic 10 mg/l, 400 nm LED pulses 0.02 ms, 1 kHz, 10 minutes
Description: (§1) 15′000′000 multi-resistant bacteriae (0.050 ml of a McFarland of 1) were put on 40 mm diameter petri dishes. The petri dishes comprised MH agar with or without antibiotic.
(§2) […]. The LED power during 0.02 ms was measured to be 0.63 W on a Thorlabs power sensor with a surface area of 2.2×2.2 mm representing a power of 13 mW/cm^2.

[6] = test system: Pseudomonas aeruginosa; experiment: as above; type: cell-based; conditions: 24 hours incubation; for A: Pseudomonas aeruginosa (no irradiation), replication: antibiotic 10 mg/l in MH agar; for B: Pseudomonas aeruginosa (irradiation), replication: antibiotic 10 mg/l, 400 nm LED pulses 0.02 ms, 1 kHz, 10 minutes
Description: as §1, §2

[7] = test system: Staphylococcus aureus MU500; experiment: as above; type: cell-based; conditions: 24 hours incubation; for E: Staphylococcus aureus MU500 (no irradiation), replication: antibiotic 10 mg/l in MH agar; for F: Staphylococcus aureus MU500 (irradiation), replication: antibiotic 10 mg/l, 400 nm LED pulses 0.02 ms, 1 kHz, 10 minutes
Description: as §1
(§3) The LED power during 0.02 ms was measured to be 0.63 W on a Thorlabs power sensor with a surface area of 2.2×2.2 mm representing a power of 13 mW/cm^2.

[8] = test system: Acinetobacter; type: cell-based; conditions: remaining bacteria of experiment 12 proliferated and treated again
Description: as §1, §3
(§4) After the irradiation treatment according to experiment 12, remaining bacteria were allowed to proliferate and then were subject to the treatment according to experiment 12 again in order to test for possible new resistances to the treatment. The values in the following table are designated as in experiment 12: […]

[9] = test system: Staphylococcus aureus MU500; type: cell-based; conditions: remaining bacteria of experiment 12 proliferated and treated again
Description: as §1, §3, §4

[10] = test system: MU50 multi-drug resistant bacterial cells; experiment: Experiment 2: moxifloxacin with UV-A on MU50 (CFU); type: cell-based, Staphylococcus aureus; conditions: for control: CFU without UVA: no UVA
Description: This low concentration was chosen so as to detect threshold effects at the low edge of a just marginally effective concentration level of the antibiotic.

[11] = sample 1A: moxifloxacin during UV 5 μg/ml, after UV 7.5 μg/ml for 2 hours, UV-A 365 nm 10 mW/cm^2 10 min
[12] = sample 1B: moxifloxacin during UV 5 μg/ml, after UV 2.5 μg/ml (NaCl added), UV-A 365 nm 10 mW/cm^2 10 min

Compound	C: Acinetobacter (no irradiation), replication [5]	D Acinetobacter (irradiation), replication [5]	A: Pseudomonas aeruginosa (no irradiation), replication [6]	B: Pseudomonas aeruginosa (irradiation), replication [6]	E: Staphylococcus aureus MU500 (no irradiation), replication [7]	F: Staphylococcus aureus MU500 (irradiation), replication [7]	D Acinetobacter (irradiation), replication, second treatment [8]	C: Acinetobacter (no irradiation), replication, second treatment [8]	F: Staphylococcus aureus MU500 (irradiation), replication, second treatment [9]	E: Staphylococcus aureus MU500 (no irradiation), replication, second treatment [9]	also measured
CC[C@@]1(O)C(=O)OCc2c1cc1n(c2=O)Cc2cc3c(CN(C)C)c(O)ccc3nc2-1 [Topotecan]											cell metabolic activity (luminescence, ATP) after normalization with the controls ([1]; A: pulse ON 10 ms, 0.1 J, OFF 90 ms, 10 minutes): 7%; cell metabolic activity (luminescence, ATP) after normalization with the controls ([1]; B: pulse ON 10 ms, 0.01-0.001 J, OFF 90 ms, 10 minutes): 52%; cell metabolic activity (luminescence, ATP) after normalization with the controls ([1]; C: control no pulse): 100%; cell metabolic activity (luminescence, ATP) after normalization with the controls ([1]; D: control no pulse): 100%; cell metabolic activity (luminescence, ATP) after normalization with the controls ([1]; E: pulse ON 10 ms, 0.01-0.001 J, OFF 90 ms, 5 minutes): 47%; cell metabolic activity (luminescence, ATP) after normalization with the controls ([1]; F: pulse ON 10 ms, 0.1 J, OFF 90 ms, 5 minutes): 5%
CN(C)[C@@H]1C(O)=C(C(N)=O)C(=O)[C@@]2(O)C(O)=C3C(=O)c4c(O)cccc4[C@@](C)(O)C3CC12 (stereo partly shown) [Tetracycline]	R (Bacteria can replicate after the treatment)	NR (No replication)	R (Bacteria can replicate after the treatment)	NR (No replication)	R (Bacteria can replicate after the treatment)	NR (No replication)	NR (No replication)	R (Bacteria can replicate after the treatment)	NR (No replication)	R (Bacteria can replicate after the treatment)	MIC [2]: 32 µg/mL (≈ 72 µM); toxicity in term of necrosis and apoptosis [3]: No toxicity in term of necrosis and apoptosis; Percentage of viable cells Normalized for the dead cell in NaCl group including light ([4]; A: 405 nm pulsed 10 ms on, 90 ms off for 10 minutes): 52%; Percentage of viable cells Normalized for the dead cell in NaCl group including light ([4]; B: 405 nm pulsed 5 ms on, 45 ms off for 10 minutes): 57%
COc1c(N2C[C@@H]3CCCN[C@@H]3C2)c(F)cc2c(=O)c(C(=O)O)cn(C3CC3)c12 [Moxifloxacin]	R (Bacteria can replicate after the treatment)	NR (No replication)	R (Bacteria can replicate after the treatment)	NR (No replication)	R (Bacteria can replicate after the treatment)	NR (No replication)	NR (No replication)	R (Bacteria can replicate after the treatment)	PR (Bacteria can replicate partially)	R (Bacteria can replicate after the treatment)	control: CFU without UVA ([10]; sample 1A: moxifloxacin during 5 μg/ml, after 7.5 μg/ml for 2 hours): 516 CFU; CFU with UVA [10, 11]: 3 CFU; CFU with UVA, percentage in brackets (survival rate) [10, 11]: 0%; control: CFU without UVA ([10]; sample 1B: moxifloxacin during 5 μg/ml, after 2.5 μg/ml (NaCl added)): 400 CFU; CFU with UVA [10, 12]: 119 CFU; CFU with UVA, percentage in brackets [10, 12]: 30%; Percentage of viable cells ([4]; C: no exposure to electromagnetic radiation, antibiotic 3-10 μg/ml final): 85%
